We go through four compounds from ChEMBL document CHEMBL4325863, “Investigating alkyl nitrates as nitric oxide releasing precursors of multitarget acetylcholinesterase-monoamine oxidase B inhibitors” (Eur J Med Chem, 2019).

Data set [1] has as its target T1, Amine oxidase [flavin-containing] A (Homo sapiens, UniProt P21397).
T1 sequence (P21397 whole entry): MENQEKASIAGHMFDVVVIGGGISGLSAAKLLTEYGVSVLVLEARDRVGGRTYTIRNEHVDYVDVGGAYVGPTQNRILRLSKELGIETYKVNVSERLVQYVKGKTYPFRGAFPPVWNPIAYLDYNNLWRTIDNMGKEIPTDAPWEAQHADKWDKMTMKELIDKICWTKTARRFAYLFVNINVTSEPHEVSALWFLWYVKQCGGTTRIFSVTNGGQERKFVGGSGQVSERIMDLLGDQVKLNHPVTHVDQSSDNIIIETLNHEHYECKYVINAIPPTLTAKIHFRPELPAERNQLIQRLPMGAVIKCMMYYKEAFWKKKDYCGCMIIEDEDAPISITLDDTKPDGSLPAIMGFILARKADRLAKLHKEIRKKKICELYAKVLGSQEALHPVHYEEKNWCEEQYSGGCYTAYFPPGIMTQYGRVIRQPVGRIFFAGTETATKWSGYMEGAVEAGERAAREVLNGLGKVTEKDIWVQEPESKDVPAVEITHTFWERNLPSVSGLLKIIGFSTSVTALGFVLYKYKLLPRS
Description: Inhibition of recombinant human MAO-A expressed in baculovirus infected insect cell microsomes at 10 uM using kynuramine as substrate measured after 30 mins by fluorescence based assay relative to control. The note with it: 0.5 h.

The target in data set [2] is T2, Amine oxidase [flavin-containing] B (Homo sapiens, UniProt P27338).
T2 sequence (P27338 whole entry): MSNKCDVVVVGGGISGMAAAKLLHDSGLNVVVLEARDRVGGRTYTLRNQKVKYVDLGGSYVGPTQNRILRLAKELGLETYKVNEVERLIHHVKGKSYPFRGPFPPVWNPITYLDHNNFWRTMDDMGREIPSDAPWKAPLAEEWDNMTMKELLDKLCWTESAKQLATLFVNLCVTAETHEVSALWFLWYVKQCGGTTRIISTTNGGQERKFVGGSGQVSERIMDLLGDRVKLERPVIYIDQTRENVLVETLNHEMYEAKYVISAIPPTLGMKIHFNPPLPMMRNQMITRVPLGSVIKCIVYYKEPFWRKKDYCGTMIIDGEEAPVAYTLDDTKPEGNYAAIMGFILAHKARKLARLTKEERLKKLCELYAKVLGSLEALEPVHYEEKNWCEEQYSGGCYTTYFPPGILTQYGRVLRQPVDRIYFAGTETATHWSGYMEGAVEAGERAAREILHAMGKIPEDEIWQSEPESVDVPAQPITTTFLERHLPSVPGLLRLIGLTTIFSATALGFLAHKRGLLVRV
Put plainly: Inhibition of recombinant human MAO-B expressed in baculovirus infected insect cell microsomes using kynuramine as substrate measured after 30 mins by fluorescence based assay.

Data set [3] can be described thus: Drug metabolism in PBS buffer assessed as nitric oxide release at 150 uM in presence of cysteine by Griess reagent based UV-Visible spectrophotometric method. As to conditions: TDE = time-dependent effect. (The Griess reaction detects nitrite, a stable product of nitric oxide.)
A further data set deals with Acetylcholinesterase (Homo sapiens, UniProt P22303). Put plainly: Inhibition of human recombinant AChE using acetylthiocholine iodide as substrate by Ellman's method. (In general: Ellman's reagent forms a yellow product with free thiols.)
Acetylcholinesterase, sequence (P22303 whole entry): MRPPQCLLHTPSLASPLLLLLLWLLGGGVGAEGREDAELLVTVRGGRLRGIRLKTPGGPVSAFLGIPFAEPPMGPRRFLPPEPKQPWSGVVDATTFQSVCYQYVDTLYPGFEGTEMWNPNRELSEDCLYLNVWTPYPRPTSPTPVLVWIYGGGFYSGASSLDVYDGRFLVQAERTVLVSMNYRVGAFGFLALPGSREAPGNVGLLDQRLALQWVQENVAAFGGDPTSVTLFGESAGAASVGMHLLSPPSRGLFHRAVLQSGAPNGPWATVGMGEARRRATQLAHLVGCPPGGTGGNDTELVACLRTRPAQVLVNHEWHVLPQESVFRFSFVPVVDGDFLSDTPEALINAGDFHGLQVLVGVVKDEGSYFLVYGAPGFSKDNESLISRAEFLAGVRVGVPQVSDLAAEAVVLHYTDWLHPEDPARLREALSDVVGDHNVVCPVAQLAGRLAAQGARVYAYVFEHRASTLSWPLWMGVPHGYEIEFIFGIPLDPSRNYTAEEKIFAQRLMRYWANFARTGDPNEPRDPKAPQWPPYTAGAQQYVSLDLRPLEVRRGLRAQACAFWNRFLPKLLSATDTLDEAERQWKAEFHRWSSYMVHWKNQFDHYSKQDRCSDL
Data set [4] addresses T3, Cholinesterase (Homo sapiens, UniProt P06276). Description: Inhibition of human serum BuChE at 10 uM using butyrylthiocholine iodide as substrate by Ellman's method relative to control.
Data set [5] in a line: Drug metabolism in pH 7.4 PBS buffer assessed as 7-{[1-(3-Hydroxypropyl)piperidin-4-yl]methoxy}-3,4-dimethyl-2H-chromen-2-one formation at 100 uM after 24 hrs by RP-HPLC method.
Data set [6] can be described thus: Half life in human serum at 100 uM by RP-HPLC method. It counts as ADME, cell-free.
Data set [7] is described as follows: Drug metabolism in pH 7.4 PBS buffer assessed as 7-{[1-(3-Hydroxypropyl)piperidin-4-yl]methoxy}-3,4-dimethyl-2H-chromen-2-one formation at 100 uM up to 30 hrs in presence of cysteine by RP-HPLC method.
Data set [8] in a line: Drug metabolism in pH 7.4 PBS buffer assessed as 7-{[1-(3-Hydroxypropyl)piperidin-4-yl]methoxy}-3,4-dimethyl-2H-chromen-2-one formation at 100 uM up to 30 hrs in presence of glutathione by RP-HPLC method.
The test system of data set [9] is SH-SY5Y. Put plainly: Neuroprotection against rotenone/H2O2-induced cell death in human SH-SY5Y cells assessed as increase in cell viability preincubated for 24 hrs followed by rotenone/H2O2 addition measured after 24 hrs by MTT assay. It counts as functional, cell-based.
Data set [10] concerns SH-SY5Y. Put plainly: Cytotoxicity against human SH-SY5Y cells assessed as reduction in cell viability after 24 hrs by MTT assay. The class given is cell-based. On the technique in general: Tetrazolium assays rely on reduction of a dye to a coloured formazan, in cell work by metabolically active cells.
Data set [11] in a line: Apparent permeability from apical to basolateral side in MDCK2-MDR1 cells by UV-Visible spectrophotometric method. The note with it: dog, MDCK-MDR1. It counts as ADME, cell-based, Canis lupus familiaris.
A short description of data set [12]: Apparent permeability from basolateral to apical side in MDCK2-MDR1 cells by UV-Visible spectrophotometric method. As to conditions: dog, MDCK-MDR1. It counts as ADME, cell-based, Canis lupus familiaris.
Data set [13] is described as follows: Efflux ratio of apparent permeability in MDCK2-MDR1 cells by UV-Visible spectrophotometric method. The class given is ADME, cell-based, Canis lupus familiaris. As to conditions: dog, MDCK-MDR1.
Data set [14] deals with T1, Amine oxidase [flavin-containing] A. Put plainly: Inhibition of recombinant human MAO-A expressed in baculovirus infected insect cell microsomes using kynuramine as substrate measured after 30 mins by fluorescence based assay.
Data set [15] deals with T3, Cholinesterase. Put plainly: Inhibition of human serum BuChE using butyrylthiocholine iodide as substrate by Ellman's method.
A short description of data set [16]: Drug metabolism in pH 7.4 PBS buffer assessed as 7-({1-[3-(3-Hydroxypropoxy)benzyl]piperidin-4-yl}methoxy)-3,4-dimethyl-2H-chromen-2-one formation at 100 uM up to 30 hrs by RP-HPLC method.
Data set [17] in a line: Drug metabolism in pH 7.4 PBS buffer assessed as 7-({1-[3-(3-Hydroxypropoxy)benzyl]piperidin-4-yl}methoxy)-3,4-dimethyl-2H-chromen-2-one formation at 100 uM up to 30 hrs in presence of cysteine by RP-HPLC method.
Data set [18] is described as follows: Drug metabolism in pH 7.4 PBS buffer assessed as 7-({1-[3-(3-Hydroxypropoxy)benzyl]piperidin-4-yl}methoxy)-3,4-dimethyl-2H-chromen-2-one formation at 100 uM up to 30 hrs in presence of glutathione by RP-HPLC method.
Data set [19] is described as follows: Drug metabolism in pH 7.4 PBS buffer at 100 uM after 24 hrs in presence of cysteine by RP-HPLC method.
Data set [20] is described as follows: Drug metabolism in pH 7.4 PBS buffer at 100 uM after 24 hrs in presence of glutathione by RP-HPLC method.
The nature of data set [21]: Drug metabolism in pH 7.4 PBS buffer at 100 uM after 24 hrs by RP-HPLC method.
Data set [22] relates to SH-SY5Y. Put plainly: Neuroprotection against rotenone/H2O2-induced cell death in human SH-SY5Y cells assessed as increase in cell viability at 0.1 to […] preincubated for 24 hrs followed by rotenone/H2O2 addition measured after 24 hrs by MTT assay. It counts as functional, cell-based.
Data set [23] addresses T2, Amine oxidase [flavin-containing] B. Put plainly: Inhibition of recombinant human MAO-B expressed in baculovirus infected insect cell microsomes at 10 uM using kynuramine as substrate measured after 30 mins by fluorescence based assay relative to control. As to conditions: 0.5 h.
The target is the same in data set [24]. Description: Inhibition of recombinant human MAO-B expressed in baculovirus infected insect cell microsomes at 10 uM using kynuramine as substrate measured after 30 mins by spectrophotometric assay relative to control. The note with it: 0.5 h.
For data set [25], the target named is Acetylcholinesterase (Electrophorus electricus) (UniProt O42275). Put plainly: Inhibition of electric eel AChE at 10 uM using acetylthiocholine iodide as substrate by Ellman's method relative to control.
Acetylcholinesterase (Electrophorus electricus), sequence (O42275 24-633 limits assumed): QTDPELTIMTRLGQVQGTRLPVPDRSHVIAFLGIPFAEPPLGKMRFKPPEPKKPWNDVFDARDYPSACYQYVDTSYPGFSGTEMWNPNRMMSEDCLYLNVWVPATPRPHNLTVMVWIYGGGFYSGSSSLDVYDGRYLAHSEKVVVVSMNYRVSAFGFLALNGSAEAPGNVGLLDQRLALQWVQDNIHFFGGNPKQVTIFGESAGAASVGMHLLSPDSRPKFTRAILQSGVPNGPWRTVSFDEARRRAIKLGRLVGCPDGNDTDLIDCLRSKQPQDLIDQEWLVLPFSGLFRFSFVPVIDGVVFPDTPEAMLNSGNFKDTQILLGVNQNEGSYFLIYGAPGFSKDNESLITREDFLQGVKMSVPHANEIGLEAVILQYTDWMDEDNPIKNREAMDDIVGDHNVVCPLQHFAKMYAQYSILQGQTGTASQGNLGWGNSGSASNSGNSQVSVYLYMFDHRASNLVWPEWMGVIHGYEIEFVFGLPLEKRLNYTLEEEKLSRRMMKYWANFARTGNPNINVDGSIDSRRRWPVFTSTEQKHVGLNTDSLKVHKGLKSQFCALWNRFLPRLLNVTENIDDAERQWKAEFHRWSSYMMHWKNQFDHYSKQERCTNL
Data set [26] has as its target Cholinesterase (Equus caballus) (UniProt P81908). Description: Inhibition of equine serum BuChE at 10 uM using butyrylthiocholine iodide as substrate by Ellman's method relative to control.

The source made the active and inactive calls. The rule behind the calls is not given here.

T3 sequence (P06276 whole entry): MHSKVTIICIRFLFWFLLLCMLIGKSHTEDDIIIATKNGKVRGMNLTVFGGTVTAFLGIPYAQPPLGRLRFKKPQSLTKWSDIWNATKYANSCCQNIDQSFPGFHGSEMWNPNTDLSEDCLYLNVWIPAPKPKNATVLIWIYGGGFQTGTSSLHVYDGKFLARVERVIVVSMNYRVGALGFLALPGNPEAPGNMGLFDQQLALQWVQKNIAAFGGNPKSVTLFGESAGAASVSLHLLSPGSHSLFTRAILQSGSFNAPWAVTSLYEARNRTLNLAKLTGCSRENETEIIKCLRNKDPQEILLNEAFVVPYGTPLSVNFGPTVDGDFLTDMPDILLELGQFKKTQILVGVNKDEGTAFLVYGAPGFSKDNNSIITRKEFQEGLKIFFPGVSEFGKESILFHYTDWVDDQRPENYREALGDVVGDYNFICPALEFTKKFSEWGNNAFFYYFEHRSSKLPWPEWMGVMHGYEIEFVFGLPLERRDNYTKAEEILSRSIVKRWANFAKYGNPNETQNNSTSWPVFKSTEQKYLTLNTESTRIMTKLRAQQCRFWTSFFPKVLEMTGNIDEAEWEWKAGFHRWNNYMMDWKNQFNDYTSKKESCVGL
Cholinesterase (Equus caballus), sequence (P81908 whole entry): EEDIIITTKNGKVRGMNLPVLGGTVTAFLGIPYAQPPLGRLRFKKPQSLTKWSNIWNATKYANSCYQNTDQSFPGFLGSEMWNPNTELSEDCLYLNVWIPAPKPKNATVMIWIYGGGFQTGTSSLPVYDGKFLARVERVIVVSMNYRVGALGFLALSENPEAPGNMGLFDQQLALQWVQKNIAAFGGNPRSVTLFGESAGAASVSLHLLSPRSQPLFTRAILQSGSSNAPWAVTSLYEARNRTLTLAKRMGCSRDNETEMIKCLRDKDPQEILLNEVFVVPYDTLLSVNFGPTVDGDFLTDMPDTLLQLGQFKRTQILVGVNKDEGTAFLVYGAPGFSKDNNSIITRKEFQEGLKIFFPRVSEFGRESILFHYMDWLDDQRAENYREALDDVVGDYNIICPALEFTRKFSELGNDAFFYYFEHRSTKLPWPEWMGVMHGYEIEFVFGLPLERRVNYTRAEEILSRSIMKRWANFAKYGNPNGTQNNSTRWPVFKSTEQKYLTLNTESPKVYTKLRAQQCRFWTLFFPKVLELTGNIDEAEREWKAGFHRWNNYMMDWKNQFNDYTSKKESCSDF

Broadly, the inhibition is how much of the control response was suppressed. Broadly, the IC50 is the midpoint of a concentration-inhibition curve. As a reminder, the half-life is the time in which the quantity being followed falls by half. Lower therefore signals fast loss. What is called Papp A→B is how fast a substance crosses the layer from the apical side. One may read the Papp B→A as the apparent permeability from the basolateral to the apical side of a cell layer. For orientation: efflux ratio means the permeability from basolateral to apical divided by that in the opposite direction, in the common usage. On to `Cc1c(C)c2ccc(OCC3CCN(CCCO[N+](=O)[O-])CC3)cc2oc1=O`, for which, in data set [1], the inhibition at 10 µM was found to be 36%. Further, the IC50 in data set [2] turned out to be 250 nM; on Acetylcholinesterase it was 860 nM. In addition, the Drug metabolism result in data set [3] is “Tde”; in [5] it was “Metabolite detected”; in data set [7] it was “Metabolite not detected”; in data set [8], “Metabolite not detected”. Moreover, on Cholinesterase [4], the inhibition is < 5%. Besides, in data set [6], the half-life at 100 µM is 0.958 days. Also, the values for the Activity result with SH-SY5Y [9] and in the data set on SH-SY5Y [10] were “Dose-dependent effect” and > 100 µM, respectively. Moreover, the Papp A→B in data set [11] worked out at 4.96 ×10⁻⁶ cm/s. Also, the Papp B→A in [12] came out at 15.7 ×10⁻⁶ cm/s. The efflux ratio in [13] is 3.17.
As to `Cc1c(C)c2ccc(OCC3CCN(Cc4cccc(OCCCO[N+](=O)[O-])c4)CC3)cc2oc1=O`, the IC50 in [14] came to 1200 nM; in data set [2], 550 nM; on Acetylcholinesterase, 480 nM; on Cholinesterase [15] it was 800 nM. In addition, the Drug metabolism entry in [3] is “Tde”; in [16], “Metabolite detected”; in data set [17] it was “Metabolite not detected”; in data set [18], “Metabolite not detected”; in [19], > 50%; in data set [20], > 50%. In addition, the Drug metabolism in data set [21] is > 50%. In addition, the half-life at 100 µM in data set [6] is 19.1 days.
`COc1cc2c(cc1OC)C(=O)C(CC1CCN(Cc3ccccc3)CC1)C2` (configuration not stated): the result in the data set on SH-SY5Y [22] was Active.
With `O=c1ccc2ccc(OCC3CCN(CCCO)CC3)cc2o1`, the inhibition at 10 µM was 26% in [1], 48% in data set [23] and 39% in data set [24]. Also, the inhibition in data set [25] worked out at 38%; in [26], 26%.
